Measured values as given in article PMC10141580, “Cyclic Dichalcogenides Extend the Reach of Bioreductive Prodrugs to Harness Thiol/Disulfide Oxidoreductases: Applications to seco-Duocarmycins Targeting the Thioredoxin System” (ACS Central Science, 2023).
Several values for one entry are separate records, joined by “and”; a condition that tells them apart may be missing. Identical values can stand only once. Like-named read-outs stand apart in the source and are kept apart here.

Test system: NCI-60 standardized human tumor cell line panel
Assay: cells
Assay type: cell-based

With `COc1cc2cc(C(=O)N3C[C@@H](CCl)c4c3cc(OC(=O)N(CCC(=O)N3CCN(C)CC3)C3CCCCC3)c3ccccc43)[nH]c2c(OC)c1OC` [P-CC60-CBI-TMI] the GI50 (SN12C, read-out: GI50) was 1.2 µM, the GI50 (SNB-19, read-out: GI50) was 2.2 µM and the GI50 (SR, read-out: GI50) was 0.28 µM. The GI50 (SW-620, read-out: GI50) was 1.9 µM, the GI50 (T-47D, read-out: GI50) was 1.9 µM and the “NCI-60 screening: Log(GI50)” value (TK-10 (RE) cell line, log10 of GI50 in M) was -5.55. The GI50 (TK-10 (RE) cell line, read-out: NCI-60 screening: Raw GI50) was 2.8 µM, the GI50 (TK-10, read-out: GI50) was 2.8 µM and the GI50 (U251, read-out: GI50) was 1.5 µM. For the same compound, the GI50 (UACC-62, read-out: GI50) was 1.5 µM, the GI50 (UACC-257, read-out: GI50) was 2 µM and the “NCI-60 screening: Log(GI50)” value (cell line A549/ATCC (LC:A549/ATCC), TMI sheet) was -5.7. For the same compound, the GI50 (cell line A549/ATCC (LC:A549/ATCC), TMI sheet, read-out: NCI-60 screening: Raw GI50) was 2 µM, the “NCI-60 screening: Log(GI50)” value (cell line BT-549 (BR:BT-549), TMI sheet) was -5.8 and the GI50 (cell line BT-549 (BR:BT-549), TMI sheet, read-out: NCI-60 screening: Raw GI50) was 1.6 µM. For the same compound, the “NCI-60 screening: Log(GI50)” value (cell line CCRF-CEM (LE:CCRF-CEM), TMI sheet) was -6, the “NCI-60 screening: Log(GI50)” value (cell line COLO 205 (CO:COLO 205), TMI sheet) was -5.86 and the GI50 (cell line COLO 205 (CO:COLO 205), TMI sheet, read-out: NCI-60 screening: Raw GI50) was 1.4 µM. For the same compound, the “NCI-60 screening: Log(GI50)” value (cell line EKVX (LC:EKVX), TMI sheet) was -5.71, the GI50 (cell line EKVX (LC:EKVX), TMI sheet, read-out: NCI-60 screening: Raw GI50) was 1.9 µM and the “NCI-60 screening: Log(GI50)” value (cell line HCC-2998 (CO:HCC-2998), TMI sheet) was -5.82. The GI50 (cell line HCC-2998 (CO:HCC-2998), TMI sheet, read-out: NCI-60 screening: Raw GI50) was 1.5 µM, the “NCI-60 screening: Log(GI50)” value (cell line HCT-15 (CO:HCT-15), TMI sheet) was -5.76 and the GI50 (cell line HCT-15 (CO:HCT-15), TMI sheet, read-out: NCI-60 screening: Raw GI50) was 1.7 µM. The “NCI-60 screening: Log(GI50)” value (cell line HCT-116 (CO:HCT-116), TMI sheet) was -5.82, the GI50 (cell line HCT-116 (CO:HCT-116), TMI sheet, read-out: NCI-60 screening: Raw GI50) was 1.5 µM and the “NCI-60 screening: Log(GI50)” value (cell line HL-60(TB) (LE:HL-60(TB)), TMI sheet) was -6.12. For the same compound, the “NCI-60 screening: Log(GI50)” value (cell line HOP-62 (LC:HOP-62), TMI sheet) was -6.23, the GI50 (cell line HOP-62 (LC:HOP-62), TMI sheet, read-out: NCI-60 screening: Raw GI50) was 0.59 µM and the “NCI-60 screening: Log(GI50)” value (cell line HOP-92 (LC:HOP-92), TMI sheet) was -5.6. The “NCI-60 screening: Log(GI50)” value (cell line HT29 (CO:HT29), TMI sheet) was -5.82, the GI50 (cell line HT29 (CO:HT29), TMI sheet, read-out: NCI-60 screening: Raw GI50) was 1.5 µM and the “NCI-60 screening: Log(GI50)” value (cell line K-562 (LE:K-562), TMI sheet) was -6.17. The “NCI-60 screening: Log(GI50)” value (cell line KM12 (CO:KM12), TMI sheet) was -5.68, the GI50 (cell line KM12 (CO:KM12), TMI sheet, read-out: NCI-60 screening: Raw GI50) was 2.1 µM and the “NCI-60 screening: Log(GI50)” value (cell line LOX IMVI (ME:LOX IMVI), TMI sheet) was -5.96. For the same compound, the GI50 (cell line LOX IMVI (ME:LOX IMVI), TMI sheet, read-out: NCI-60 screening: Raw GI50) was 1.1 µM, the “NCI-60 screening: Log(GI50)” value (cell line M14 (ME:M14), TMI sheet) was -5.82 and the GI50 (cell line M14 (ME:M14), TMI sheet, read-out: NCI-60 screening: Raw GI50) was 1.5 µM. For the same compound, the “NCI-60 screening: Log(GI50)” value (cell line MALME-3M (ME:MALME-3M), TMI sheet) was -5.8, the GI50 (cell line MALME-3M (ME:MALME-3M), TMI sheet, read-out: NCI-60 screening: Raw GI50) was 1.6 µM and the “NCI-60 screening: Log(GI50)” value (cell line MCF7 (BR:MCF7), TMI sheet) was -6.5. For the same compound, the “NCI-60 screening: Log(GI50)” value (cell line MDA-MB-435 (ME:MDA-MB-435), TMI sheet) was -5.75, the “NCI-60 screening: Log(GI50)” value (cell line MOLT-4 (LE:MOLT-4), TMI sheet) was -6.23 and the GI50 (cell line MOLT-4 (LE:MOLT-4), TMI sheet, read-out: NCI-60 screening: Raw GI50) was 0.59 µM. For the same compound, the “NCI-60 screening: Log(GI50)” value (cell line NCI-H23 (LC:NCI-H23), TMI sheet) was -6.33, the “NCI-60 screening: Log(GI50)” value (cell line NCI-H226 (LC:NCI-H226), TMI sheet) was -5.84 and the GI50 (cell line NCI-H226 (LC:NCI-H226), TMI sheet, read-out: NCI-60 screening: Raw GI50) was 1.4 µM. For the same compound, the “NCI-60 screening: Log(GI50)” value (cell line RPMI-8226 (LE:RPMI-8226), TMI sheet) was -5.83, the GI50 (cell line RPMI-8226 (LE:RPMI-8226), TMI sheet, read-out: NCI-60 screening: Raw GI50) was 1.5 µM and the “NCI-60 screening: Log(GI50)” value (cell line SF-268 (CNS:SF-268), TMI sheet) was -5.81. The GI50 (cell line SF-268 (CNS:SF-268), TMI sheet, read-out: NCI-60 screening: Raw GI50) was 1.5 µM, the “NCI-60 screening: Log(GI50)” value (cell line SF-295 (CNS:SF-295), TMI sheet) was -5.81 and the GI50 (cell line SF-295 (CNS:SF-295), TMI sheet, read-out: NCI-60 screening: Raw GI50) was 1.5 µM. The “NCI-60 screening: Log(GI50)” value (cell line SF-539 (CNS:SF-539), TMI sheet) was -5.88, the “NCI-60 screening: Log(GI50)” value (cell line SK-MEL-5 (ME:SK-MEL-5), TMI sheet) was -5.79 and the GI50 (cell line SK-MEL-5 (ME:SK-MEL-5), TMI sheet, read-out: NCI-60 screening: Raw GI50) was 1.6 µM. The “NCI-60 screening: Log(GI50)” value (cell line SK-MEL-28 (ME:SK-MEL-28), TMI sheet) was -5.45, the “NCI-60 screening: Log(GI50)” value (cell line SNB-19 (CNS:SNB-19), TMI sheet) was -5.65 and the GI50 (cell line SNB-19 (CNS:SNB-19), TMI sheet, read-out: NCI-60 screening: Raw GI50) was 2.2 µM. The “NCI-60 screening: Log(GI50)” value (cell line SR (LE:SR), TMI sheet) was -6.56, the “NCI-60 screening: Log(GI50)” value (cell line SW-620 (CO:SW-620), TMI sheet) was -5.72 and the GI50 (cell line SW-620 (CO:SW-620), TMI sheet, read-out: NCI-60 screening: Raw GI50) was 1.9 µM. For the same compound, the “NCI-60 screening: Log(GI50)” value (cell line T-47D (BR:T-47D), TMI sheet) was -5.72, the GI50 (cell line T-47D (BR:T-47D), TMI sheet, read-out: NCI-60 screening: Raw GI50) was 1.9 µM and the “NCI-60 screening: Log(GI50)” value (cell line U251 (CNS:U251), TMI sheet) was -5.82. For the same compound, the GI50 (cell line U251 (CNS:U251), TMI sheet, read-out: NCI-60 screening: Raw GI50) was 1.5 µM, the “NCI-60 screening: Log(GI50)” value (cell line UACC-62 (ME:UACC-62), TMI sheet) was -5.82 and the GI50 (cell line UACC-62 (ME:UACC-62), TMI sheet, read-out: NCI-60 screening: Raw GI50) was 1.5 µM. The “NCI-60 screening: Log(GI50)” value (cell line UACC-257 (ME:UACC-257), TMI sheet) was -5.7, the GI50 (cell line UACC-257 (ME:UACC-257), TMI sheet, read-out: NCI-60 screening: Raw GI50) was 2 µM and the GI50 (read-out: GI50) was 1.5 µM and 2.4 µM. For the same compound, the GI50 (read-out: NCI-60 screening: Raw GI50) was 1.5 µM.
